The source of these data is patent US10940216B2, “Cyclic peptides with enhanced nerve-binding selectively, nanoparticles bound with said cyclic peptides, and use of same for real-time in vivo nerve tissue imaging” (Memorial Sloan Kettering Cancer Center, priority 2014, dated 2021).

Data set [1] can be described thus: Characterization of NBP-Cy5 conjugates and linear NBP-C′ dots by fluorescence correlation spectroscopy (FCS). It counts as physicochemical. As to the method: Similarly, cyclic peptide(s) can be bound to nanoparticles for improved quantum enhancement and FCS brightness over the non-bound cyclic peptide.
Measurements were determined from fluorescence correlation spectroscopy (FCS).
The linear nerve binding polypeptide (NBP) NP41 was incorporated onto C′ dots using a PEG linker moiety.

Another data set relates to sciatic nerve. The data set can be described thus: In vivo optical imaging of sciatic nerve and adjacent muscle after iv injection of peptide-dye conjugates. As to conditions: nude mouse; for fluorescence signal at 30 min as percentage of post-injection/initial signal: 150 nmole iv. The procedure:
FIGS. 13A-13E show in vivo time-dependent uptake from sciatic nerve and muscle post-iv injection of 17 AA cyclic peptide-dye conjugates using optical imaging. 17 AA cyclic peptide-dye conjugates (Cy5 labeled) were injected intravenously (400 nmole) into the tail veins of nude mouse prior to surgical exposure and imaging of sciatic nerves and adjacent muscle using a Zeiss Lumar stereomicroscope (0.8× objective) with fluorescence imaging capabilities. Pre- and serial post injection (p.i.) images (bright field, fluorescent) were acquired at 8 times points from 15 min to 240 min p.i. Bars indicate mean+/−standard deviation. N=5 per group. Each replicate is from one biological experiment, quantified with five independent fields of view. Region of interest (ROI) analysis was performed over nerve and muscle regions to assess time-dependent signal changes. FIGS. 13A-13E show the absolute and relative fluorescence signal (e.g., percentage of the initial fluorescence signal acquired at 15 min p.i.) of nerves (FIGS. 13A and […]) and adjacent muscle (FIGS. 13B and 13D), respectively.
FIGS. 14A and 14B show in vivo time-dependent uptake from sciatic nerve and muscle post-iv injection of 17 AA linear peptide-dye conjugates using optical imaging. 17 AA linear peptide-dye conjugates (Cy5 labeled) were injected intravenously (150 nmole) into the tail veins of nude mouse prior to surgical exposure and imaging of sciatic nerves and adjacent muscle using a Zeiss Lumar stereomicroscope (0.8× objective) with fluorescence imaging capabilities. Pre- and serial post injection (p.i.) images (bright field, fluorescent) were acquired at 6 times points (15 min-150 min) p.i. Bars indicate mean+/−standard deviation. N=5 per group.
FIGS. 16A-16E show in vivo time-dependent uptake from sciatic nerve and muscle post-iv injection of 17 AA cyclic peptide-dye conjugates using optical imaging. 17 AA cyclic peptide-dye conjugates (Cy5 labeled) were injected intravenously (150 nmole) into the tail veins of nude mouse prior to surgical exposure and imaging of sciatic nerves and adjacent muscle using a Zeiss Lumar stereomicroscope (0.8× objective) with fluorescence imaging capabilities. Pre- and serial post injection (p.i.) images (bright field, fluorescent) were acquired at 6 time points (15 min-150 min) p.i. Bars indicate mean+/−standard deviation. N=5 per group. Each replicate is from one biological experiment, quantified with five independent fields of view. Region of interest (ROI) analysis was performed over nerve and muscle regions to assess time-dependent signal changes. FIGS. 16A-16D show the absolute and relative fluorescence signal (percentage of the initial fluorescence signal acquired at 15 min p.i.) of nerves (FIGS. 16A and 16C) and adjacent muscle (FIGS. 16B and 16D), respectively.

Ends that are not written are not given here.

Take `CCN1/C(=C/C=C/C=C/C2=[N+](CCCCCC(=O)O)c3ccc(S(=O)(=O)O)cc3C2(C)C)C(C)(C)c2cc(S(=O)(=O)[O-])ccc21` [Cy5]: in data set [1], the “# of Cy5 per particles” value amounted to 1, the “Hydrodynamic Diameter” value is on record as 1.4 nm, the “PCS Brightness” value came to 9.2 kHz and the “Quantum Enhancement” value came to 1.

As to “Ac-SHSNTQTLAKAPEHTGC (also: Cy5 label, site not given here) [LinearNBP-Cy5]”, in data set [1], the “# of Cy5 per particles” value was determined as 1, the “# of NBP per particles” value is listed as 1, the “Hydrodynamic Diameter” value is reported as 2.4 nm and the “PCS Brightness” value is 8.9 kHz. In addition, the “Quantum Enhancement” value in data set [1] worked out at 0.9. Besides, the “fluorescence signal at 30 min as percentage of post-injection/initial signal” value in the data set with sciatic nerve (listed as 17 AA linear peptide-dye conjugates) is “about 15%”. Moreover, the “fluorescence signal at 30 min as percentage of post-injection/initial signal” value in the data set with sciatic nerve (listed as linear peptide) is 10%. Also, the “duration of detectable signal after administration (in words)” value in the data set with sciatic nerve (iv) is listed as “barely perceptible thereafter”. Also, the “nerve-to-muscle or contrast ratios over time (in words)” value in the data set with sciatic nerve (iv, listed as linear peptide) is given as “does not demonstrate as high ratios”. Also, the “nerve-to-muscle or contrast ratios over time (in words)” value with sciatic nerve (iv, listed as linear peptide-dye conjugate) is “roughly equivalent over the first 30 min”.
